According to EP1282604B1, “SUBSTITUTED CAPROLACTAM CARBONATES AND ETHERS AND THEIR USE AS ANTI-TUMOR AGENTS” (Novartis AG, priority 2000, dated 2001):
Like-named read-outs stand apart in the source and are kept apart here.

Columns and labels:
U2OS osteosarcoma = assay: Anchorage Dependent Growth Monolayer Assay (ADGMA), MTS readout; type: cell-based; conditions: 3-day exposure, U2OS cells, read-out: IC50 values (average ± S.D.) U2OS
Excerpt: (§1) As indicated above, all of the compounds of formula I, and their corresponding pharmaceutically acceptable acid addition salts, are anti-tumor agents and are, therefore, useful in inhibiting the growth of various lymphomas, sarcomas, carcinomas, myelomas, and leukemia cell lines. […] This assay was adapted from the 60 cell line assay used by the National Cancer Institute (NCl) with the following modifications: 1) cell lines representative for the important tumor types, viz., MDA-MB-435 human breast, A549 non-small cell lung, H1299 lung, HCT-116 colon and PC-3 prostate carcinomas, and U2OS osteosarcomas were utilized; and 2) a tetrazolium derivative, viz., 3-(4,5-dimethylthiazol-2-yl)-5-(3-carboxymethoxyphenyl)-2-(4-sulfophenyl)-2H-tetrazolium, inner salt (MTS), was utilized to determine cell density.
(§2) The ADGMA compares the number of viable cells following a 3-day exposure to a test compound relative to a number of cells present at the time the test compound was added. […] The absorbance at 490 nm (A490) of the formazan derivative is proportional to the number of viable cells. The IC50 for a test compound is the concentration of compound required to reduce the final cell number to 50% of the final control cell number. If cell proliferation is inhibited, the assay further defines compounds as cytostatic (cell number after 3-day compound incubation >cell number at time of compound addition) or cytotoxic (cell number after 3-day compound incubation <cell number at time of compound addition).
(§3) The H1299 lung, HCT-116 colon, and PC-3 prostate carcinoma cell lines, and U2OS osteosarcoma cell line were obtained from the American Type Culture Collection (ATCC) and used between passages 4-20 following thawing. H1299 and HCT-116 cells were maintained in RPMI 1640 containing 10% FBS, 100 units/mL penicillin and 100 µg/mL streptomycin; PC-3 cells were maintained in Kahn's Modification containing 10% FBS, 100 units/mL penicillin and 100 µg/mL streptomycin; and U2OS cells were maintained in DMEM containing 10% FBS, 100 units/mL penicillin and 100 µg/mL streptomycin.
(§4) Cell lines are trypsinized and counted using a Coulter counter to determine plating densities. Cells are then plated in their respective maintenance media (100 µL/well) in 96 well plates at the following densities: MDA-MB-435 and U2OS, 3,000 cells/well; A549 and HCT-116, 700 cells/well; H1299, 1,000 cells/well; and PC-3, 2500 cells/well. The number of cells plates as determined in preliminary experiments, results in cell densities of 75-90% of confluency by 4 days after plating. Initial cell densities, assayed one day after plating, are roughly 0.15-0.20 absorbance units greater than the media blank. Ninety-six well plates are seeded on day 0 and the test compounds are added on day 1. A control plate is created for each cell line that receives media only in row A and cells in row B. One day following plating, test compounds are added (in a final volume of 100 µL) to the test plates. Control plates receive 10 µL MTS mixture (prepared fresh on day of addition to cell plates at a ratio of 10 µL of a 0.92 mg/mL solution of PMS to a 190 µL of a 2 mg/mL solution of MTS) and 100 µL media. A490 of control plates is read 4 h after MTS addition to determine initial cell density values for each cell line. Three days after addition of test compound, 10 µL/well of MTS mixture is added to the test plates and A490 is read 4 h later. A490 values for wells containing cells are corrected for media absorbance, then normalized to initial density readings to determine percent net growth. IC50 values are determined from graphs of percent net growth as a function of compound concentration. Percent net growth is calculated as (Cell + Drug A490 - Initial A490/Cell + Drug Vehicle A490 - Initial A490) x 100%.

H1299 lung carcinoma = assay: as above; type: cell-based; conditions: 3-day exposure, H1299 cells, read-out: IC50 values (average ± S.D.) H1299
Excerpt: as §1, §2, §3, §4

HCT-116 colon carcinoma = assay: as above; type: cell-based; conditions: 3-day exposure, HCT-116 cells, read-out: IC50 values (average ± S.D.) HCT-116
Excerpt: as §1, §2, §3, §4

[1] = test system: MDA-MB-435 human breast carcinoma; assay: as above; type: cell-based; conditions: 3-day exposure, MDA-MB-435 cells, read-out: IC50 values (average ± S.D.) MDA-MB-435
Excerpt: as §1, §2
(§5) The MDA-MB-435 human breast carcinoma and the A549 non-small cell lung carcinoma lines were obtained from the American Type Culture Collection (ATCC) and used between passages 4-20 following thawing. MDA-MB-435 human breast carcinoma and A549 non-small cell lung carcinoma cells were maintained and plated in DME/F12 medium containing 10% fetal bovine serum, 15 mM HEPES (pH=7.4), 100 units/mL penicillin, and 100 µg/mL streptomycin.
as §4

[2] = test system: A549 non-small cell lung carcinoma; assay: as above; type: cell-based, human; conditions: 3-day exposure, A549 cells, read-out: IC50 values (average ± S.D.) A549
Excerpt: as §1, §2, §5, §4

[3] = test system: MDA-MB-435 tumor xenografts; assay: Human tumor xenograft growth inhibition in athymic nude mice; type: in vivo; conditions: 3X/week for 3 weeks; for %T/C: * = p<0.05
Protocol: (§6) Utilizing this model, one can measure the ability of test compounds to inhibit the growth of human tumor xenografts growing subcutaneously (s.c.) in athymic nude mice. The histologic tumor type employed was MDA-MB-435 breast carcinoma for Ex.1 and 7 and A549 non-small cell lung carcinoma for Ex. 1-3.
MDA-MB-435 human breast carcinoma: Treatments were started 15 d post implantation (3 x 10^6 cells/mouse), when a mean tumor volume of approximately 45 mm^3 was reached. Ex.1 and 7 were administered iv at three times per week for 3 weeks (days 15, 17, 20, 22, 24, 27, 29, and 31), at 3.3, 10, and 33 µmol/kg. Doxorubicin was administered iv at 2 mg/kg using the same schedule. Each data point represents tumor growth (mean ± SEM), or body weight (mean), with an initial group size of n = 8, from a representative experiment performed twice. An asterisk (*) indicates p < 0.05 using a one-tailed Student's t-test.
(§7) Toxicity was monitored by recording average group body weights twice weekly, and by daily observation of general health. Efficacy was monitored by taking measurements of tumor length, width, and depth weekly using digital calipers coupled to automated data collectors. Mean tumor volume (MTV) at initiation of therapy was subtracted from final MTV in order to express the actual tumor growth during treatment (A MTV). Anti-tumor activity was expressed as %T/C (A MTV of treated group ÷ Δ MTV of control group X100%). Statistical significance was evaluated using a one-tailed Student's t-test (p<0.05).

A549 tumor xenografts = assay: as above; type: in vivo; conditions: 5X/week for 2 weeks; for Δ MTV / %T/C: recorded on day 24; for %T/C: * = p<0.05
Protocol: as §6
A549 non-small cell lung carcinoma: Treatments were started 17 d post-implantation (1 x 10^7 cells/mouse), when a mean tumor volume of approximately 120 mm^3 was reached. Ex. 1-3 were administered iv on days 17-21 (followed by 2 d rest, then a second cycle of treatment on days 24-28). Total daily doses of 10 or 30 µmol/kg were administered as a single injection. Data in this table were recorded on day 24, 3 d after the last treatment of the first cycle. An asterisk (*) indicates p < 0.05 using a one-tailed Student's t-Test.
as §7

| Compound | IC50 (U2OS osteosarcoma; Homo sapiens, 72 h) | IC50 (H1299 lung carcinoma; Homo sapiens, NCI-H1299, 72 h) | IC50 (HCT-116 colon carcinoma; Homo sapiens, 72 h) | IC50 ([1]; Homo sapiens, 72 h) | IC50 ([2]; Homo sapiens, 72 h) | Dead/Total ([3]; 3.3 µmol/kg iv) | Δ MTV ([3]; 3.3 µmol/kg iv) | %T/C ([3]; 3.3 µmol/kg iv) | Dead/Total ([3]; 10 µmol/kg iv) | Δ MTV ([3]; 10 µmol/kg iv) | %T/C ([3]; 10 µmol/kg iv) | Dead/Total ([3]; 33 µmol/kg iv) | Δ MTV ([3]; 33 µmol/kg iv) | %T/C ([3]; 33 µmol/kg iv) | Dead/Total (A549 tumor xenografts; 10 µmol/kg iv daily) | Δ MTV (A549 tumor xenografts; 10 µmol/kg iv daily) | %T/C (A549 tumor xenografts; 10 µmol/kg iv daily) | Dead/Total (A549 tumor xenografts; 30 µmol/kg iv daily) | Δ MTV (A549 tumor xenografts; 30 µmol/kg iv daily) | %T/C (A549 tumor xenografts; 30 µmol/kg iv daily) | other results |
| --- | --- | --- | --- | --- | --- | --- | --- | --- | --- | --- | --- | --- | --- | --- | --- | --- | --- | --- | --- | --- | --- |
| CO[C@@H](C(=O)N[C@H]1CC[C@@H](OC(=O)OCC(C)(C)C)CNC1=O)[C@H](O)[C@@H](O)[C@H](O)/C=C/C(C)(C)C [Ex. 5, (2R, 3R, 4S, 5R, 6E)-3,4,5-trihydroxy-2-methoxy-8,8-dimethyl-N-[(3S, 6R)-hexahydro-2-oxo-6-([[2,2-dimethylpropoxy]carbonyl]oxy)-2H-azepin-3-yl]non-6-enonamide] | 0.62 ± 0.16 µM | 0.36 ± 0.12 µM | 0.27 ± 0.1 µM | 0.12 ± 0.02 µM | 0.138 ± 0.008 µM |  |  |  |  |  |  |  |  |  |  |  |  |  |  |  |  |
| CCCCCCCCCCCOCC(=O)O[C@@H]1CC[C@H](NC(=O)[C@H](OC)[C@H](O)[C@@H](O)[C@H](O)/C=C/C(C)(C)C)C(=O)NC1 [Ex. 7, (2R, 3R, 4S, 5R, 6E)-3,4,5-trihydroxy-2-methoxy-8,8-dimethyl-N-[(3S, 6R)-hexahydro-2-oxo-6-([[undecyloxy]acetyl]oxy)-2H-azepin-3-yl]non-6-enonamide] |  |  |  |  |  | 0/8 | 165 mm^3 | 102% | 0/8 | 103 mm^3 | 64% | 0/8 | 48 mm^3 | 30* % |  |  |  |  |  |  |  |
| CCCCCOC(=O)O[C@@H]1CC[C@H](NC(=O)[C@H](OC)[C@H](O)[C@@H](O)[C@H](O)/C=C/C(C)(C)C)C(=O)NC1 [Ex. 2, (2R, 3R, 4S, 5R, 6E)-3,4,5-trihydroxy-2-methoxy-8,8-dimethyl-N-[(3S, 6R)-hexahydro-2-oxo-6-([[pentyloxy]carbonyl]oxy)-2H-azepin-3-yl]non-6-enonamide] |  |  |  |  |  |  |  |  |  |  |  |  |  |  | 0/8 | 42 mm^3 | 32* % | 0/8 | 60 mm^3 | 46* % | IC50 (U2OS osteosarcoma): 0.09 ± 0.03 µM; IC50 (H1299 lung carcinoma): 0.21 ± 0.17 µM; IC50 (HCT-116 colon carcinoma): 0.17 ± 0.1 µM; IC50 [1]: 0.07 ± 0.02 µM; IC50 [2]: 0.117 ± 0.02 µM |
| CO[C@@H](C(=O)N[C@H]1CC[C@@H](OC(=O)OC2CCCCC2)CNC1=O)[C@H](O)[C@@H](O)[C@H](O)/C=C/C(C)(C)C [Ex. 6, (2R, 3R, 4S, 5R, 6E)-3,4,5-trihydroxy-2-methoxy-8,8-dimethyl-N-[(3S, 6R)-hexahydro-2-oxo-6-([[cyclohexyloxy]carbonyl]oxy)-2H-azepin-3-yl]non-6-enonamide] | 0.77 ± 0.4 µM | 0.57 ± 0.29 µM | 0.4 ± 0.12 µM | 0.35 ± 0.11 µM | 0.441 ± 0.063 µM |  |  |  |  |  |  |  |  |  |  |  |  |  |  |  |  |
| CO[C@@H](C(=O)N[C@H]1CC[C@@H](OC(=O)OCCc2ccccc2)CNC1=O)[C@H](O)[C@@H](O)[C@H](O)/C=C/C(C)(C)C [Ex. 3, (2R, 3R, 4S, 5R, 6E)-3,4,5-trihydroxy-2-methoxy-8,8-dimethyl-N-[(3S, 6R)-hexahydro-2-oxo-6-([[2-phenylethoxy]carbonyl]oxy)-2H-azepin-3-yl]non-6-enonamide] | 0.31 ± 0.04 µM | 0.33 ± 0.27 µM | 0.16 ± 0.03 µM | 0.08 ± 0.03 µM | 0.132 ± 0.02 µM |  |  |  |  |  |  |  |  |  | 0/8 | 106 mm^3 | 82% | 0/8 | 55 mm^3 | 42* % |  |
| CCCCCCCCCCOC(=O)O[C@@H]1CC[C@H](NC(=O)[C@H](OC)[C@H](O)[C@@H](O)[C@H](O)/C=C/C(C)(C)C)C(=O)NC1 [Ex. 1, (2R, 3R, 4S, 5R, 6E)-3,4,5-trihydroxy-2-methoxy-8,8-dimethyl-N-[(3S, 6R)-hexahydro-2-oxo-6-([[decyloxy]carbonyl]oxy)-2H-azepin-3-yl]non-6-enonamide] | > 1 µM | 0.57 ± 0.22 µM | 0.53 ± 0.35 µM | 0.21 ± 0.14 µM |  | 0/8 | 132 mm^3 | 74* % | 0/8 | 162 mm^3 | 90% | 0/8 | 79 mm^3 | 44* % | 0/8 | 95 mm^3 | 73% | 0/8 | 39 mm^3 | 30* % |  |
